According to patent US20230357269A1 (LES LABORATOIRES SERVIER, priority 2020, published 2023):
Read-outs that look alike come from different tables or passages of the source.

Legend:
[1] = other bond
[2] = molecular target: human recombinant LRRK2 protein (Homo sapiens (Human), UniProt Q5S007); assay: LRRK2 Kinase Activity Assay (ADP-Glo); assay type: biochemical; conditions: LRRK2 wt; LRRKtide peptide and ATP substrates; 1h-incubation at 37° C.
In short: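 Recombinant human LRRK2 acted on LRRKtide peptide and ATP for 1 h at 37 °C. ADP formed was detected by ADP-Glo luminescence (ATP depletion, then ADP-to-ATP conversion and luciferase). IC50s came from curve fits over 10 concentrations (N=2).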

Sequence of human recombinant LRRK2 protein (Q5S007 whole entry): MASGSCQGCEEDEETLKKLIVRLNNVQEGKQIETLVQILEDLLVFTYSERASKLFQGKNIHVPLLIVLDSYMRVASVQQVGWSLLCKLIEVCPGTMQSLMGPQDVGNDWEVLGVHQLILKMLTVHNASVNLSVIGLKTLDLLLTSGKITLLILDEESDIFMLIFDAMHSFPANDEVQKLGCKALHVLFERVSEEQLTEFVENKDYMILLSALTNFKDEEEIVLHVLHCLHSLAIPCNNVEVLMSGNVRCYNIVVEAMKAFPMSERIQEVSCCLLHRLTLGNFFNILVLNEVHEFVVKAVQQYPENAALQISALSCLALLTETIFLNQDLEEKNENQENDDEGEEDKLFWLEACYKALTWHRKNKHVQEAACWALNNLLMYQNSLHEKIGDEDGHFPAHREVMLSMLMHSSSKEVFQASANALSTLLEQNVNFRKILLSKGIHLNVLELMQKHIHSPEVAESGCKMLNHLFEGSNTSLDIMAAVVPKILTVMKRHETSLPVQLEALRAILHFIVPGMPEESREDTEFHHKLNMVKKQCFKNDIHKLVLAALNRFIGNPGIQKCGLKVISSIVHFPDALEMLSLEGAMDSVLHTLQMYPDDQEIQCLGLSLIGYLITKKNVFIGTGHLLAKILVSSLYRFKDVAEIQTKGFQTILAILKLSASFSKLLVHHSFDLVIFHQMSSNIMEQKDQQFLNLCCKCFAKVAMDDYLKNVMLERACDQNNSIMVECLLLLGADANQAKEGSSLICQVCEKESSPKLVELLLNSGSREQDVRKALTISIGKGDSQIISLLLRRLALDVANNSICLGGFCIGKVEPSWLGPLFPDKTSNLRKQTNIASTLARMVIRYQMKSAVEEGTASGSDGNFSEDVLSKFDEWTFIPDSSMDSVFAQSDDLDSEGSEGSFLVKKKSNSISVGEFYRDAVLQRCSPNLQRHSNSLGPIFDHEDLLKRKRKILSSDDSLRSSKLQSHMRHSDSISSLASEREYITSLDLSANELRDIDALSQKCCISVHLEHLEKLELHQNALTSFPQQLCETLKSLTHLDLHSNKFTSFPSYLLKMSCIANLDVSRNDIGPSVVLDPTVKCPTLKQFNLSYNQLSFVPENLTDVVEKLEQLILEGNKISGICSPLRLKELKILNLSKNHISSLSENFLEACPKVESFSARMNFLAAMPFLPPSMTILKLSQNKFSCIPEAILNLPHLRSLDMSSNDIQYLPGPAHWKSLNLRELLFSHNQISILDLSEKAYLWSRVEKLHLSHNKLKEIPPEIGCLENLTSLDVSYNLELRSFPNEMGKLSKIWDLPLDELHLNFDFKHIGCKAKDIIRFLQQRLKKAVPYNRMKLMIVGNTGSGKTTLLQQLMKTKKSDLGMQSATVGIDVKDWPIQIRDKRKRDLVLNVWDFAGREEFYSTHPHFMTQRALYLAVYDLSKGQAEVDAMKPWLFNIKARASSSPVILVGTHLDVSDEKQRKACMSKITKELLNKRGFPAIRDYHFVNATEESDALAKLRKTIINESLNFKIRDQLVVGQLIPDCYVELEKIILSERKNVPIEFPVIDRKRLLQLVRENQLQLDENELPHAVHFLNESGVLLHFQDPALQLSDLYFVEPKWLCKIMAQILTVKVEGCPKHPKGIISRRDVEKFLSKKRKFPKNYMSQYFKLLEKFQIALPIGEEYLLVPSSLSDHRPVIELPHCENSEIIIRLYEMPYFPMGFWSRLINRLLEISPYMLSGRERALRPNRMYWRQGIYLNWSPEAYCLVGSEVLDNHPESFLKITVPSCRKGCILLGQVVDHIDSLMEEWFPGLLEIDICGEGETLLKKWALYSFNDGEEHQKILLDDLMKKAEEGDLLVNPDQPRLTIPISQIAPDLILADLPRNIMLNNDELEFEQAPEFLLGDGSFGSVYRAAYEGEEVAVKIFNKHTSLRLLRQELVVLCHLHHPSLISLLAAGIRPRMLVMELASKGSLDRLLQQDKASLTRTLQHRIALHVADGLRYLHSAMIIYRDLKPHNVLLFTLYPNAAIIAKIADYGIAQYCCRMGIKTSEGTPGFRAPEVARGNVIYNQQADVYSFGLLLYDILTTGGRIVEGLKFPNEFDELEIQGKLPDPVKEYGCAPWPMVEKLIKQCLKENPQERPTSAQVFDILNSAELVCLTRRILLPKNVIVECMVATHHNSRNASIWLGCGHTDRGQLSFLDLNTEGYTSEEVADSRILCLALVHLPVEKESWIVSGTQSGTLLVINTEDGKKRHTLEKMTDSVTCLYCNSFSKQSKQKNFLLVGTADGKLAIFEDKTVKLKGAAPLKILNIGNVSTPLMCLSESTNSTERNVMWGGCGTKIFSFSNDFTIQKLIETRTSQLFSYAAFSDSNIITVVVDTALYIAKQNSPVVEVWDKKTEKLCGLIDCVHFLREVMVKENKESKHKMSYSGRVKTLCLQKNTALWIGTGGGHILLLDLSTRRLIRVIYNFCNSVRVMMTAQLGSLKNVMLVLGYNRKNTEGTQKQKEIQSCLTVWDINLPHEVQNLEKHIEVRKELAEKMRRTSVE

COCC1CCOc2ccc3c(c2)c(nn3C2CCCCO2)-c2cccc(c2)COC(=O)N1 (stereo not drawn)
ring closure, yield of all isomers ([1]; from COCC(CCOc1ccc2c(c1)c(-c1cccc(CO)c1)nn2C1CCCCO1)NC(=O)OCc1ccccc1, cesium carbonate, acetonitrile, 4.47 mM, 90.0 °C, 6.0 h): 62.3%

O=C1NCCCOc2ccc3c(c2)c(nn3C2CCCCO2)-c2cc(Br)cc(c2)CO1 (stereo not drawn)
ring closure, yield of all isomers ([1]; from O=C(NCCCOc1ccc2c(c1)c(-c1cc(Br)cc(CO)c1)nn2C1CCCCO1)OCc1ccccc1, NaH, toluene, 1.6 mM, 140.0 °C, 42.0 h): 25.7%

O=C1NC[C@@H](F)COc2ccc3[nH]nc(c3c2)-c2cncc(n2)CO1 [Example 172, (12R)-12-fluoro-8,14-dioxa-4,10,19,20,23-pentaazatetracyclo[13.5.2.1^2,6.0^18,21]tricosa-1(20),2(23),3,5,15,17,21-heptaen-9-one]
IC50 [2]: < 10 nM

O=C1NC[C@H](F)COc2ccc3[nH]nc(c3c2)-c2cnn(n2)CCO1 [Example 173, (12S)-12-fluoro-8,14-dioxa-4,5,10,19,20,23-hexaazatetracyclo[13.5.2.1^2,5.0^18,21]tricosa-1(20),2(23),3,15,17,21-hexaen-9-one]
IC50 [2]: < 10 nM

O=C1NC[C@@H](F)COc2ccc3[nH]nc(c3c2)-c2cnn(n2)CCO1 [Example 174, (12R)-12-fluoro-8,14-dioxa-4,5,10,19,20,23-hexaazatetracyclo[13.5.2.1^2,5.0^18,21]tricosa-1(20),2(23),3,15,17,21-hexaen-9-one]
IC50 [2]: < 10 nM

O=C1NCCC2(CC2)Oc2ccc3[nH]nc(c3c2)-c2cccc(c2)CO1 [Example 175, 8′,14′-dioxa-10′,19′,20′-triazaspiro[cyclopropane-1,13′-tetracyclo[13.5.2.1^2,6.0^18,21]tricosane]-1′(20′),2′(23′),3′,5′,15′(22′),16′,18′(21′)-heptaen-9′-one]
IC50 [2]: < 10 nM
